Here are results for nine compounds from PMC7395850 (Biochemical and biophysical research communications, 2019).

Each structure is given as a SMILES string.

Holding throughout (type): biochemical
For one data set, the target named is T1, N-phos in mouse sEH (Mus musculus, UniProt P34914).
T1 sequence (P34914 1-554): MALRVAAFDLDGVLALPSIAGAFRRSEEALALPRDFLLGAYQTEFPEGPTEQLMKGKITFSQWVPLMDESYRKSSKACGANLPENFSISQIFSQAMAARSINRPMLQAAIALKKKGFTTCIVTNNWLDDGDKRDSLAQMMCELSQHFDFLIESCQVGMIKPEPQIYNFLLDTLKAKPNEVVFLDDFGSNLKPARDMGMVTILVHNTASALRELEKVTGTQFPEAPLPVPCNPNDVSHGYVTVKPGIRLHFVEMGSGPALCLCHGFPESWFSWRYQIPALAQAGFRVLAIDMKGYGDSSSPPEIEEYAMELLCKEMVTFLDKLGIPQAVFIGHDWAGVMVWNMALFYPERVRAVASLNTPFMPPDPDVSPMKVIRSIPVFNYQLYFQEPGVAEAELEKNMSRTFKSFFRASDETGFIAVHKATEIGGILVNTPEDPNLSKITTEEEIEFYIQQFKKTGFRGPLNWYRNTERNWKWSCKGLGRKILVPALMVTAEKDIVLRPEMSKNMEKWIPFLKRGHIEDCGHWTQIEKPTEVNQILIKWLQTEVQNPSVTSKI
The experiment in a line: N-phos activity assay with AttoPhos substrate, mouse sEH. The settings on record: for inhibition of mouse N-phos: inhibitor at 6 μM; for species preference of N-phos inhibition (mouse versus human), in words: mouse at 6 μM versus human at 30 μM (Figure 1D); for Ki: read-out: KI for mouse N-phos, competitive with respect to AttoPhos; for inhibition mechanism, mouse N-phos: with respect to the substrate AttoPhos; for selectivity index (N-phos over C-EH) in mouse sEH: IC50 C-EH / IC50 N-phos; for inhibition of mouse N-phos, in words: screening, 6 μM.

The target in another data set is T2, N-phos in human sEH (Homo sapiens, UniProt P34913).
T2 sequence (P34913 1-555): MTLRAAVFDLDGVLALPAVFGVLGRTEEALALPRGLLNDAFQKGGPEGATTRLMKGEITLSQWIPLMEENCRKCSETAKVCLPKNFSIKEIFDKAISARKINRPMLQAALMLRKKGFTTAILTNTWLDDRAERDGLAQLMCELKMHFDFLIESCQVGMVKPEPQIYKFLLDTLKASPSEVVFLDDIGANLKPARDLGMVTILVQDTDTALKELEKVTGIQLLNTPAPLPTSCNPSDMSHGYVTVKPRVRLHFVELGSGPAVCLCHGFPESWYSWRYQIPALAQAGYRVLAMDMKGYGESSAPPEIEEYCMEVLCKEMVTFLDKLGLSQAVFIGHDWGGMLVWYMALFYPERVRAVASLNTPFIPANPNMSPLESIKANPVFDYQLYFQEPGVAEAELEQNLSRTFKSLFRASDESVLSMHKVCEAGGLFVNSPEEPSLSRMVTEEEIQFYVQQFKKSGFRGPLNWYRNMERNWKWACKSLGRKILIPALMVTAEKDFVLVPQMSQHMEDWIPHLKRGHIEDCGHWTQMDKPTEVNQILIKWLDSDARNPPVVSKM
The experiment in a line: N-phos activity assay with AttoPhos substrate, human sEH. The settings on record: for selectivity index (N-phos over C-EH) in human sEH: IC50 C-EH / IC50 N-phos; for inhibition of human N-phos: inhibitor at 30 μM; for Ki: read-out: KI for human N-phos, competitive with respect to AttoPhos; for inhibition mechanism, human N-phos: with respect to the substrate AttoPhos; for inhibition of human N-phos, in words: screening, 30 μM; for species preference of N-phos inhibition (human versus mouse), in words: human at 30 μM versus mouse at 6 μM (Figure 1B).

Another data set concerns the target T3, C-EH in human sEH (Homo sapiens, UniProt P34913).
T3 sequence (P34913 1-555): T2 sequence (P34913 1-555)
Briefly: C-EH activity assay with PHOME substrate, human sEH. Conditions: for time-dependent change in C-EH inhibition, human sEH: preincubation 1.7, 10, 30 and 120 min; for IC50: read-out: IC50 for C-EH in human sEH, human sEH, PHOME substrate.

The next data set concerns the target T4, C-EH in mouse sEH (Mus musculus, UniProt P34914).
T4 sequence (P34914 1-554): T1 sequence (P34914 1-554)
The experiment in a line: C-EH activity assay with PHOME substrate, mouse sEH. Conditions: for IC50: read-out: IC50 for C-EH in mouse sEH, mouse sEH, PHOME substrate; for time-dependent change in C-EH inhibition, mouse sEH: preincubation time-window 1.7−120 min.

As to `O=C(N[C@@H](Cc1ccccc1Cl)C(=O)O)OCC1c2ccccc2-c2ccccc21` [Compound 73, Fmoc-L-Phe(2-Cl)], at N-phos in mouse sEH, the “inhibition of mouse N-phos” value was > 75% and the “species preference of N-phos inhibition (mouse versus human), in words” value was “more potent on inhibiting the mouse N-phos than the human enzyme”.

`COc1ccc(C[C@@H](NC(=O)OCC2c3ccccc3-c3ccccc32)C(=O)O)cc1` [Compound 72, Fmoc-D-Tyr(Me)]: at N-phos in human sEH, the “selectivity index (N-phos over C-EH) in human sEH” value (from here on “selectivity index … in human sEH”) is > 31 and the “inhibition of human N-phos” value is > 72%. At C-EH in human sEH, the “time-dependent change in C-EH inhibition, human sEH” value is on record as “no time-dependent change” and the half-inhibitory concentration (IC50) was > 200 µM.

With `CC(=O)N[C@@H](CSC/C=C(\C)CC/C=C(\C)CCC=C(C)C)C(=O)O` [AFC, N-Acetyl-S-farnesyl-L-cysteine, reference compound], at N-phos in mouse sEH, the inhibition constant Ki was 33 µM and the “inhibition mechanism, mouse N-phos” value is “competitively”. In addition, on N-phos in human sEH, the “selectivity index … in human sEH” value is listed as > 29; the Ki worked out at 1.1 µM; the “inhibition mechanism, human N-phos” value is “competitively”. Besides, at C-EH in mouse sEH, the IC50 turned out to be 48 µM. Further, the IC50 at C-EH in human sEH was > 100 µM.

On to `N#Cc1ccc(C[C@H](NC(=O)OCC2c3ccccc3-c3ccccc32)C(=O)O)cc1` [Compound 67, Fmoc-L-Phe(4-CN)], for which, at N-phos in mouse sEH, the “selectivity index (N-phos over C-EH) in mouse sEH” value is recorded as 37; the “inhibition of mouse N-phos” value is reported as > 75%; the “species preference of N-phos inhibition (mouse versus human), in words” value is “more potent on inhibiting the mouse N-phos than the human enzyme”; the inhibition constant Ki turned out to be 1.1 µM. Besides, the “inhibition mechanism, mouse N-phos” value on N-phos in mouse sEH was “competitively”. On N-phos in mouse sEH (ratio of KI values), the “preference for mouse N-phos over human N-phos” value is given as 24 fold. For the same compound, on N-phos in human sEH, the Ki amounted to 26 µM and the “inhibition mechanism, human N-phos” value is “competitively”. On C-EH in mouse sEH, the “time-dependent change in C-EH inhibition, mouse sEH” value is “did not display any time-dependent change” and the half-maximal inhibitory concentration (IC50) was found to be 85 µM.

`CC(C)(C)OC(=O)n1cc(C[C@H](NC(=O)OCC2c3ccccc3-c3ccccc32)C(=O)O)c2ccccc21` [Compound 95, Fmoc-L-Trp(Boc)]: on N-phos in mouse sEH, the “inhibition of mouse N-phos” value is > 75% and the “inhibition of mouse N-phos, in words” value is on record as “inhibitory”. At N-phos in human sEH, the “inhibition of human N-phos” value is recorded as > 72% and the “inhibition of human N-phos, in words” value is “inhibitory”.

As for `CC(C)(C)OC(=O)N[C@H](Cc1ccc(OC(=O)OCc2ccccc2Br)cc1)C(=O)O` [Compound 30, Boc-D-Tyr(2-Br-Z)], on N-phos in human sEH, the “species preference of N-phos inhibition (human versus mouse), in words” value is “more potent on inhibiting the human N-phos than the mouse enzyme” and the “inhibition of human N-phos” value is on record as > 72%.

Turning to `CC(C)(C)OC(=O)n1cc(C[C@@H](NC(=O)OCC2c3ccccc3-c3ccccc32)C(=O)O)c2ccccc21` [Compound 96, Fmoc-D-Trp(Boc)], at N-phos in mouse sEH, the “inhibition of mouse N-phos” value was > 75% and the “inhibition of mouse N-phos, in words” value is “inhibitory”. At N-phos in human sEH, the “inhibition of human N-phos” value was > 72% and the “inhibition of human N-phos, in words” value is recorded as “inhibitory”.

In the case of `O=C(N[C@@H](Cc1c[nH]c2ccccc12)C(=O)O)OCC1c2ccccc2-c2ccccc21` [Compound 78, Fmoc-L-Trp], on N-phos in mouse sEH, the “selectivity index (N-phos over C-EH) in mouse sEH” value is reported as ~ 50; the “inhibition of mouse N-phos” value is given as > 75%; the “inhibition of mouse N-phos, in words” value was “inhibitory”. For the same compound, the “inhibition of human N-phos, in words” value on N-phos in human sEH is “inhibitory”. Also, at C-EH in mouse sEH, the “time-dependent change in C-EH inhibition, mouse sEH” value was “did not display any time-dependent change” and the IC50 is ~200 µM.

As for `CC(C)(C)OC(=O)N[C@@H](Cc1ccc(OCc2ccccc2)cc1)C(=O)O` [Compound 23, Boc-L-Tyr(Bzl)], on N-phos in mouse sEH, the inhibition constant (Ki) came out at 9 µM and the “inhibition mechanism, mouse N-phos” value is recorded as “competitively”. Besides, at N-phos in human sEH, the “selectivity index … in human sEH” value turned out to be 127; the “species preference of N-phos inhibition (human versus mouse), in words” value is given as “more potent on inhibiting the human N-phos than the mouse enzyme”; the “inhibition of human N-phos” value is > 72%; the Ki was 0.89 µM. The “inhibition mechanism, human N-phos” value against N-phos in human sEH was “competitively”. Further, the “preference for human N-phos over mouse N-phos” value at N-phos in human sEH (ratio of KI values) is reported as 10 fold. Moreover, on C-EH in human sEH, the “time-dependent change in C-EH inhibition, human sEH” value is recorded as “no time-dependent change” and the concentration for half-maximal inhibition (IC50) was determined as 190 µM.

What is called IC50 is the concentration that gives 50% inhibition. One may read the Ki as a measure of affinity in units of concentration, obtained from inhibition or displacement.
